In the kinase profiling compilation of Christmann-Franck et al. (2016):

Key:
Experiment in all cases: KINOMEscan competition binding
Conditions in all cases: compound 10.0 µM
AAK1 (human) = AAK1 (human) (UniProt Q2M2I8)
ACVR1 (human) = ACVR1 (human) (UniProt Q04771)
ACVR1B (human) = ACVR1B (human) (UniProt P36896)
CAMKK1 (human) = CAMKK1 (human) (UniProt Q8N5S9)
CDC42BPB (human) = CDC42BPB (human) (UniProt Q9Y5S2)
CDC42BPG (human) = CDC42BPG (human) (UniProt Q6DT37)
CLK2 (human) = CLK2 (human) (UniProt P49760)
CSK (human) = CSK (human) (UniProt P41240)
CSNK1D (human) = CSNK1D (human) (UniProt P48730)
EPHA2 (human) = EPHA2 (human) (UniProt P29317)
EPHA6 (human) = EPHA6 (human) (UniProt Q9UF33)
ERBB2 (human) = ERBB2 (human) (UniProt P04626)
ERBB4 (human) = ERBB4 (human) (UniProt Q15303)
FGFR1 (human) = FGFR1 (human) (UniProt P11362)
FGFR1 (human), sequence (P11362 whole entry, looked up): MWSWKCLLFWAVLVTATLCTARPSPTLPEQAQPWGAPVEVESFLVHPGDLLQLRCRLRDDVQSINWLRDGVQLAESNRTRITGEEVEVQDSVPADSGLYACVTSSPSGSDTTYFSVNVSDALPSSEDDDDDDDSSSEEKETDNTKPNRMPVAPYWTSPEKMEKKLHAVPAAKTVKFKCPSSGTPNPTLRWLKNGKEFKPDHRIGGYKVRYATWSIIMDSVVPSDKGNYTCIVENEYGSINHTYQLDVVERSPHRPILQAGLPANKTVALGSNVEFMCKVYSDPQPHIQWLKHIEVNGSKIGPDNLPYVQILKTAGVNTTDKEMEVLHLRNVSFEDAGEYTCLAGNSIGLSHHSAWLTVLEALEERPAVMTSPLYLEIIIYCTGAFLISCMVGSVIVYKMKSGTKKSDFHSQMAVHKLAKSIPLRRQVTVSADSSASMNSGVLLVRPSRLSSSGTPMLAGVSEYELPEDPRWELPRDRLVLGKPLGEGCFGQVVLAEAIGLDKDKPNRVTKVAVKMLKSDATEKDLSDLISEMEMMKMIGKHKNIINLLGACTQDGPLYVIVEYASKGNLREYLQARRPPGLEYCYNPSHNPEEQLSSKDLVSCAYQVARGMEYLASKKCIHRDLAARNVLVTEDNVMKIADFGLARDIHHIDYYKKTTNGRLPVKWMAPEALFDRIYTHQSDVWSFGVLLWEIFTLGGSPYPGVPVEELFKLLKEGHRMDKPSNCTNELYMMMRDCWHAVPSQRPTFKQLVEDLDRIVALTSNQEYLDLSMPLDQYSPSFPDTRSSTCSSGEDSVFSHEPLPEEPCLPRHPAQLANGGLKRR

FGFR3 (human) = FGFR3 (human) (UniProt P22607)
MAP3K4 (human) = MAP3K4 (human) (UniProt Q9Y6R4)
MAP4K2 (human) = MAP4K2 (human) (UniProt Q12851)
MAP4K5 (human) = MAP4K5 (human) (UniProt Q9Y4K4)
MAPK14 (human) = MAPK14 (human) (UniProt Q16539)
MAPK7 (human) = MAPK7 (human) (UniProt Q13164)
MAPK7 (human), sequence (Q13164 whole entry, looked up): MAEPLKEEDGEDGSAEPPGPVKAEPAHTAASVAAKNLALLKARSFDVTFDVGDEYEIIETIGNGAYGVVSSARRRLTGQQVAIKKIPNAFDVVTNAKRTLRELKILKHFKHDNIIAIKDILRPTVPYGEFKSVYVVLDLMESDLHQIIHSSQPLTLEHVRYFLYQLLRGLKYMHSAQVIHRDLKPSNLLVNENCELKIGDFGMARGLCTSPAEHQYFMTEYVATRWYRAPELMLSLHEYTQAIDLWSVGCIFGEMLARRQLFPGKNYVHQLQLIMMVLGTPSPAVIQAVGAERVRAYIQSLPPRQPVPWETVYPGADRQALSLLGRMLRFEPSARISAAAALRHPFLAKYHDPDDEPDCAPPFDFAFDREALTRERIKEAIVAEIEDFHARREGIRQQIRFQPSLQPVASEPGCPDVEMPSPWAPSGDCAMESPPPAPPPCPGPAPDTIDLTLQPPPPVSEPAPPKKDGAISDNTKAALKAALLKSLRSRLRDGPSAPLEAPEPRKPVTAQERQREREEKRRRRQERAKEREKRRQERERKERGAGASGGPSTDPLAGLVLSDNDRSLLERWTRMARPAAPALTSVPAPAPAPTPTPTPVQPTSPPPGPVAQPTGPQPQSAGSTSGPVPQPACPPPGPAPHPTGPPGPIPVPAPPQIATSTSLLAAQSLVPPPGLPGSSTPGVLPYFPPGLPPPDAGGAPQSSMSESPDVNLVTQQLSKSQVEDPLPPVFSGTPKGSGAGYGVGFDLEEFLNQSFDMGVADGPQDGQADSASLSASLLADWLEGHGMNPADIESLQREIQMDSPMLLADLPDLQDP

MAPKAPK2 (human) = MAPKAPK2 (human) (UniProt P49137)
NLK (human) = NLK (human) (UniProt Q9UBE8)
PAK4 (human) = PAK4 (human) (UniProt O96013)
PDPK1 (human) = PDPK1 (human) (UniProt O15530)
PIM2 (human) = PIM2 (human) (UniProt Q9P1W9)
PIM2 (human), sequence (Q9P1W9 whole entry, looked up): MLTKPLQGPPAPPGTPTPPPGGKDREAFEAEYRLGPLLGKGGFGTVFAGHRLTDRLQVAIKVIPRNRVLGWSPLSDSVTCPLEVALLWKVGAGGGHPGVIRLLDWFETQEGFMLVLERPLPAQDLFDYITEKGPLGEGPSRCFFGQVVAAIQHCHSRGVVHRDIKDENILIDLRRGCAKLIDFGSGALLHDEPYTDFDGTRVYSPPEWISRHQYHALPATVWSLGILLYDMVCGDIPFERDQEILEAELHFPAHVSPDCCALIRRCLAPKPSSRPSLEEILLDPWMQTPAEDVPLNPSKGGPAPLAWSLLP

PKN1 (human) = PKN1 (human) (UniProt Q16512)
PKN1 (human), sequence (Q16512 whole entry, looked up): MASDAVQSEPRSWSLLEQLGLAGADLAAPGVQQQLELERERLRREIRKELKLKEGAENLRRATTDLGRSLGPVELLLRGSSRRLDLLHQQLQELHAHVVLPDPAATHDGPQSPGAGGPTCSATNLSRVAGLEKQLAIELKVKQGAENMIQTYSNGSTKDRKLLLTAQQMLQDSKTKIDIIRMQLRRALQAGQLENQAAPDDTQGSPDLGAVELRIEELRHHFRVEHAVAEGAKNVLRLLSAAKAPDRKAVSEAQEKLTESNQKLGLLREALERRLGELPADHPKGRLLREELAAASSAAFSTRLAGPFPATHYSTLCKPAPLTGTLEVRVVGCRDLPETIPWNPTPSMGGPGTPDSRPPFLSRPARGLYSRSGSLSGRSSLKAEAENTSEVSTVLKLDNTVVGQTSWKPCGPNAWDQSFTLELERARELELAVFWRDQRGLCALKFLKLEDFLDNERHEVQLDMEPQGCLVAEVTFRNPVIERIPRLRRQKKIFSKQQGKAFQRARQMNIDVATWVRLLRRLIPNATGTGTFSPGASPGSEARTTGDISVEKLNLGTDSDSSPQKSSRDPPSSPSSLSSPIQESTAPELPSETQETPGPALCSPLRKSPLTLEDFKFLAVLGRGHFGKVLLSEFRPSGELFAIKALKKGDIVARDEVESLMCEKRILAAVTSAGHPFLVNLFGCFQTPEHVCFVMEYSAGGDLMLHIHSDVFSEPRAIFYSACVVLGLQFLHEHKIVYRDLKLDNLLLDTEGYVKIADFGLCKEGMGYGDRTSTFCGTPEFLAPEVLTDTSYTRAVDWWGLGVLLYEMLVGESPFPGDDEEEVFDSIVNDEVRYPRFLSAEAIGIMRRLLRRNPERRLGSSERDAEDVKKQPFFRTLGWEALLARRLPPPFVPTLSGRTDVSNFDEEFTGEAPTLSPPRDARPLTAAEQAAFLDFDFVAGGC

PKN2 (human) = PKN2 (human) (UniProt Q16513)
PLK3 (human) = PLK3 (human) (UniProt Q9H4B4)
PLK3 (human), sequence (Q9H4B4 whole entry, looked up): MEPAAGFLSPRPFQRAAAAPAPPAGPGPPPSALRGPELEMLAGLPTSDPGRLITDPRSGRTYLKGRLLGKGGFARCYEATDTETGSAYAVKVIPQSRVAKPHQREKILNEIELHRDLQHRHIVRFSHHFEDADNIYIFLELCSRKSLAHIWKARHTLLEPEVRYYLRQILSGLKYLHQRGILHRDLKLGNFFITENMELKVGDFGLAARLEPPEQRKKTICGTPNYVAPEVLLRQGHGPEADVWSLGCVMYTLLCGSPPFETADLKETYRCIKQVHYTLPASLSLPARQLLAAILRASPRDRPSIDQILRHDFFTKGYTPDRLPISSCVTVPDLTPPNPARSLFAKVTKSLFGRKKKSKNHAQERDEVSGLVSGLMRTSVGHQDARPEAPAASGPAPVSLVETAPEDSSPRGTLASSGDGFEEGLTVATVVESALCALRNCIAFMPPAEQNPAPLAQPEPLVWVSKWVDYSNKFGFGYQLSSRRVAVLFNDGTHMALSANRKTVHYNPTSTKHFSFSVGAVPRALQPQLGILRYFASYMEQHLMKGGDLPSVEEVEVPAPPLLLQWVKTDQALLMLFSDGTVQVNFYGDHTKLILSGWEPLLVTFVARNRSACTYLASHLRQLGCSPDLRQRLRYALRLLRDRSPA

PLK4 (human) = PLK4 (human) (UniProt O00444)
PRKD2 (human) = PRKD2 (human) (UniProt Q9BZL6)
PRKD2 (human), sequence (Q9BZL6 whole entry, looked up): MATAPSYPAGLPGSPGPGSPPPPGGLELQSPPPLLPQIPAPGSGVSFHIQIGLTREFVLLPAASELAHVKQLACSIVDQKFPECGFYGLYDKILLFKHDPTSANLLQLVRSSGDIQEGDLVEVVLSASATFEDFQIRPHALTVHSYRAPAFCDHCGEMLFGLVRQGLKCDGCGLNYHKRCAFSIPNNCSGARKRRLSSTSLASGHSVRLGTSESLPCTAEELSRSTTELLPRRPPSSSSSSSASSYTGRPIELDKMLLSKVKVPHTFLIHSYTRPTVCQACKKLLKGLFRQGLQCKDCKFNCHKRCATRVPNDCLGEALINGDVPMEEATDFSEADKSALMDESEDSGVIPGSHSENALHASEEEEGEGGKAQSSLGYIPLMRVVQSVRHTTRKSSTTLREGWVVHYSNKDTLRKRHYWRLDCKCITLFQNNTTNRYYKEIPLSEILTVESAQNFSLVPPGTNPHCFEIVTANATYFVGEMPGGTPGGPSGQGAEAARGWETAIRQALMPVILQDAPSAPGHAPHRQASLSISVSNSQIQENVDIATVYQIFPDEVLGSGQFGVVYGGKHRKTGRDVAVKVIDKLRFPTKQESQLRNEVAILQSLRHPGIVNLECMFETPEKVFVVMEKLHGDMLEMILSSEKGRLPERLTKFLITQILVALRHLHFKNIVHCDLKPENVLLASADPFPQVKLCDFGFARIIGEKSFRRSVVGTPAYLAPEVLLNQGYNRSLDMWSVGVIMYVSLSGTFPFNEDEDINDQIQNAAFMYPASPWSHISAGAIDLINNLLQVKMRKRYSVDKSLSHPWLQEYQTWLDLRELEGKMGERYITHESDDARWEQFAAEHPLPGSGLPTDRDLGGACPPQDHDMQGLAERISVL

PRKG1 (human) = PRKG1 (human) (UniProt Q13976)
PTK2 (human) = PTK2 (human) (UniProt Q05397)
RPS6KA2 KD1 (human) = RPS6KA2 KD1 (human) (UniProt Q15349)
RPS6KA2 KD2 (human) = RPS6KA2 KD2 (human) (UniProt Q15349)
RPS6KA4 KD1 (human) = RPS6KA4 KD1 (human) (UniProt O75676)
SRPK1 (human) = SRPK1 (human) (UniProt Q96SB4)
STK32B (human) = STK32B (human) (UniProt Q9NY57)
TGFBR1 (human) = TGFBR1 (human) (UniProt P36897)
TLK2 (human) = TLK2 (human) (UniProt Q86UE8)
ULK3 (human) = ULK3 (human) (UniProt Q6PHR2)

ACVR1B (human), sequence (P36896 whole entry, looked up): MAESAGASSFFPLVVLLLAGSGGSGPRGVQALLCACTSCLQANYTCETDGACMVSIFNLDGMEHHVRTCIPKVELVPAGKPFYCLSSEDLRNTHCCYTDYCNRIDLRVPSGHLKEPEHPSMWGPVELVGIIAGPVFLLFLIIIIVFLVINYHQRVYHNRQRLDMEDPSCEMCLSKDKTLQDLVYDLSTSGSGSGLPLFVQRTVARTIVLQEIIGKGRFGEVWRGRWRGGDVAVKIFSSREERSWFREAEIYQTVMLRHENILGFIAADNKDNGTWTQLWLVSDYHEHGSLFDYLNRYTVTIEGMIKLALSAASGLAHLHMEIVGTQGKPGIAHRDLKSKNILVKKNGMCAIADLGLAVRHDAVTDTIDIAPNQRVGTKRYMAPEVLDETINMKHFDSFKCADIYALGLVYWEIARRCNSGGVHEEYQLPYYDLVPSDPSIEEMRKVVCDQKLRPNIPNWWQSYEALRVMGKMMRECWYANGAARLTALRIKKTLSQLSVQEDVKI

Q: What does the source list for `C=CC(=O)Nc1cccc(Nc2nc(N[C@H]3CC[C@H](N(C)C)CC3)nc3c2ncn3C(C)C)c1`?
A: kinase still bound, per cent of control (AAK1 (human)): 45%; kinase still bound, per cent of control (ACVR1 (human)): 100%; kinase still bound, per cent of control (ACVR1B (human)): 87%; kinase still bound, per cent of control (CAMKK1 (human)): 40%; kinase still bound, per cent of control (CDC42BPB (human)): 76%; kinase still bound, per cent of control (CDC42BPG (human)): 84%; kinase still bound, per cent of control (CLK2 (human)): 0.5%; kinase still bound, per cent of control (CSK (human)): 90%; kinase still bound, per cent of control (CSNK1D (human)): 0.75%; kinase still bound, per cent of control (EPHA2 (human)): 60%; kinase still bound, per cent of control (EPHA6 (human)): 73%; kinase still bound, per cent of control (ERBB2 (human)): 100%; kinase still bound, per cent of control (ERBB4 (human)): 76%; kinase still bound, per cent of control (FGFR1 (human)): 76%; kinase still bound, per cent of control (FGFR3 (human)): 68%; kinase still bound, per cent of control (MAP3K4 (human)): 100%; kinase still bound, per cent of control (MAP4K2 (human)): 31%; kinase still bound, per cent of control (MAP4K5 (human)): 60%; kinase still bound, per cent of control (MAPK14 (human)): 95%; kinase still bound, per cent of control (MAPK7 (human)): 100%; kinase still bound, per cent of control (MAPKAPK2 (human)): 100%; kinase still bound, per cent of control (NLK (human)): 96%; kinase still bound, per cent of control (PAK4 (human)): 17%; kinase still bound, per cent of control (PDPK1 (human)): 100%; kinase still bound, per cent of control (PIM2 (human)): 100%; kinase still bound, per cent of control (PKN1 (human)): 22%; kinase still bound, per cent of control (PKN2 (human)): 61%; kinase still bound, per cent of control (PLK3 (human)): 100%; kinase still bound, per cent of control (PLK4 (human)): 85%; kinase still bound, per cent of control (PRKD2 (human)): 100%; kinase still bound, per cent of control (PRKG1 (human)): 100%; kinase still bound, per cent of control (PTK2 (human)): 26%; kinase still bound, per cent of control (RPS6KA2 KD1 (human)): 4.4%; kinase still bound, per cent of control (RPS6KA2 KD2 (human)): 81%; kinase still bound, per cent of control (RPS6KA4 KD1 (human)): 59%; kinase still bound, per cent of control (SRPK1 (human)): 52%; kinase still bound, per cent of control (STK32B (human)): 100%; kinase still bound, per cent of control (TGFBR1 (human)): 100%; kinase still bound, per cent of control (TLK2 (human)): 100%; kinase still bound, per cent of control (ULK3 (human)): 52%

Q: With `Cc1ccc(NC(=O)c2cccc(C(C)(C)C#N)c2)cc1Nc1ccc2ncn(C)c(=O)c2c1` as the compound, how does the kinase still bound, per cent of control (AAK1 (human)) read?
A: 100%

Q: And the kinase still bound, per cent of control (ACVR1 (human))?
A: 100%

Q: And the kinase still bound, per cent of control (ACVR1B (human))?
A: 97%

Q: And the kinase still bound, per cent of control (CAMKK1 (human))?
A: 34%

Q: What about the kinase still bound, per cent of control (CDC42BPB (human)) of the same compound?
A: 100%

Q: And the kinase still bound, per cent of control (CDC42BPG (human))?
A: 98%

Q: And the kinase still bound, per cent of control (CLK2 (human))?
A: 100%

Q: What about the kinase still bound, per cent of control (CSK (human)) of the same compound?
A: 1.2%

Q: What about the kinase still bound, per cent of control (CSNK1D (human)) of the same compound?
A: 100%

Q: And the kinase still bound, per cent of control (EPHA2 (human))?
A: 3.2%

Q: And the kinase still bound, per cent of control (EPHA6 (human))?
A: 0%

Q: And the kinase still bound, per cent of control (ERBB2 (human))?
A: 72%

Q: And the kinase still bound, per cent of control (ERBB4 (human))?
A: 34%

Q: And the kinase still bound, per cent of control (FGFR1 (human))?
A: 59%

Q: And the kinase still bound, per cent of control (FGFR3 (human))?
A: 100%

Q: And the kinase still bound, per cent of control (MAP3K4 (human))?
A: 100%

Q: What about the kinase still bound, per cent of control (MAP4K2 (human)) of the same compound?
A: 62%

Q: What about the kinase still bound, per cent of control (MAP4K5 (human)) of the same compound?
A: 59%

Q: And the kinase still bound, per cent of control (MAPK14 (human))?
A: 0%

Q: What about the kinase still bound, per cent of control (MAPK7 (human)) of the same compound?
A: 100%

Q: What about the kinase still bound, per cent of control (MAPKAPK2 (human)) of the same compound?
A: 100%

Q: And the kinase still bound, per cent of control (NLK (human))?
A: 48%

Q: And the kinase still bound, per cent of control (PAK4 (human))?
A: 72%

Q: What about the kinase still bound, per cent of control (PDPK1 (human)) of the same compound?
A: 100%

Q: What about the kinase still bound, per cent of control (PIM2 (human)) of the same compound?
A: 100%

Q: And the kinase still bound, per cent of control (PKN1 (human))?
A: 100%

Q: And the kinase still bound, per cent of control (PKN2 (human))?
A: 100%

Q: What about the kinase still bound, per cent of control (PLK3 (human)) of the same compound?
A: 100%

Q: And the kinase still bound, per cent of control (PLK4 (human))?
A: 87%

Q: And the kinase still bound, per cent of control (PRKD2 (human))?
A: 99%

Q: And the kinase still bound, per cent of control (PRKG1 (human))?
A: 100%

Q: What about the kinase still bound, per cent of control (PTK2 (human)) of the same compound?
A: 100%

Q: And the kinase still bound, per cent of control (RPS6KA2 KD1 (human))?
A: 89%

Q: What about the kinase still bound, per cent of control (RPS6KA2 KD2 (human)) of the same compound?
A: 84%

Q: And the kinase still bound, per cent of control (RPS6KA4 KD1 (human))?
A: 100%

Q: What about the kinase still bound, per cent of control (SRPK1 (human)) of the same compound?
A: 100%

Q: What about the kinase still bound, per cent of control (STK32B (human)) of the same compound?
A: 100%

Q: And the kinase still bound, per cent of control (TGFBR1 (human))?
A: 100%

Q: And the kinase still bound, per cent of control (TLK2 (human))?
A: 100%

Q: And the kinase still bound, per cent of control (ULK3 (human))?
A: 97%
